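How tested: cells in 96-well plates exposed to compound for 48 hours at five concentrations. TGI marks complete inhibition of growth.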
Columns and labels:
Assay in all cases: NCI-60 cell line screen, 48 h
SK-OV-3 ovarian = test system: SK-OV-3 ovarian
OVCAR-5 ovarian = test system: OVCAR-5 ovarian
SN12C renal = test system: SN12C renal
SK-MEL-5 melanoma = test system: SK-MEL-5 melanoma
HCT-15 colon = test system: HCT-15 colon
EKVX NSCLC = test system: EKVX NSCLC
IGROV1 ovarian = test system: IGROV1 ovarian
MALME-3M melanoma = test system: MALME-3M melanoma
OVCAR-8 ovarian = test system: OVCAR-8 ovarian
COLO 205 colon = test system: COLO 205 colon
SF-295 CNS = test system: SF-295 CNS
DMS 114 small cell lung = test system: DMS 114 small cell lung
HOP-18 NSCLC = test system: HOP-18 NSCLC
HT29 colon = test system: HT29 colon
NCI-H226 lung = test system: NCI-H226 lung
LXFL 529 NSCLC = test system: LXFL 529 NSCLC
OVCAR-3 ovarian = test system: OVCAR-3 ovarian
ACHN renal = test system: ACHN renal
SF-268 CNS = test system: SF-268 CNS
RPMI-8226 leukemia = test system: RPMI-8226 leukemia
OVCAR-4 ovarian = test system: OVCAR-4 ovarian
HCT-116 colon = test system: HCT-116 colon
MOLT-4 leukemia = test system: MOLT-4 leukemia
HL-60(TB) leukemia = test system: HL-60(TB) leukemia
UACC-257 melanoma = test system: UACC-257 melanoma
SNB-75 CNS = test system: SNB-75 CNS
SK-MEL-2 melanoma = test system: SK-MEL-2 melanoma
KM12 colon = test system: KM12 colon
DLD-1 colon = test system: DLD-1 colon
SNB-78 CNS = test system: SNB-78 CNS
CCRF-CEM leukemia = test system: CCRF-CEM leukemia
KM20L2 colon = test system: KM20L2 colon
LOX IMVI melanoma = test system: LOX IMVI melanoma
U251 CNS = test system: U251 CNS
HOP-62 NSCLC = test system: HOP-62 NSCLC
RXF 393 renal = test system: RXF 393 renal
CAKI-1 renal = test system: CAKI-1 renal
M19-MEL melanoma = test system: M19-MEL melanoma
UACC-62 melanoma = test system: UACC-62 melanoma
A549 NSCLC = test system: A549 NSCLC
DMS 273 small cell lung = test system: DMS 273 small cell lung
SF-539 CNS = test system: SF-539 CNS
786-0 renal = test system: 786-0 renal
NCI-H522 lung = test system: NCI-H522 lung
SW-620 colon = test system: SW-620 colon
A498 renal = test system: A498 renal
UO-31 renal = test system: UO-31 renal
NCI-H460 lung = test system: NCI-H460 lung
SK-MEL-28 melanoma = test system: SK-MEL-28 melanoma
NCI-H23 lung = test system: NCI-H23 lung
TK-10 renal = test system: TK-10 renal
SNB-19 CNS = test system: SNB-19 CNS
M14 melanoma = test system: M14 melanoma
HCC-2998 colon = test system: HCC-2998 colon
K-562 leukemia = test system: K-562 leukemia
HOP-92 NSCLC = test system: HOP-92 NSCLC
SR leukemia = test system: SR leukemia

Measured: TGI

O=C1C[C@@H]2[C@@H](C=CC23CCCC3)N1O
not listed: HOP-92 NSCLC | SR leukemia
> 100 µM: all other assays above

CN1C=C(C(N)=O)Cc2ccsc21
not listed: LOX IMVI melanoma | A498 renal | TK-10 renal
> 100 µM: all other assays above
